Assay results: patent US8329395B2 (priority 2003, dated 2012)

How the values were obtained:
[1] = system: thiA-lacZ fusion (ΩamyE::thiA-lacZ) in B. subtilis TH21; format: cell-based, Bacillus subtilis; conditions: for repressing activity on thiA-lacZ expression: 1 μM each; for repression of thiA-lacZ expression: 1 μM in shake-flask culture, early logarithmic phase (OD600=0.8-0.9), compared to minimal medium without thiamin
Experimental: The strategy to isolate thiamin deregulated mutants of B. subtilis was to mutagenize bacteria that contained a thiA-lacZ fusion and then screen for colonies on XGAL-containing medium that were Lac^+ (i.e. blue colonies) in the presence of TPP or thiamin. A 732 bp-long DNA fragment containing 417 bp of the 5′ promoter region of thiA was prepared by PCR using standard methods and cloned unidirectionally in front of the promoterless lacZ gene of the pDG1728 vector (Guerout-Fleury et al. (1996) Gene 180:57-61), resulting in plasmid pTH12. This vector is designed to introduce ectopic transcriptional lacZ fusions into the non-essential amyE locus of B. subtilis. Plasmid pTH12 was linearized by restriction enzyme digestion and transformed into B. subtilis PY79, selecting for colonies that were resistant to 100 μg/ml spectinomycin.

[2] = system: B. subtilis PY79 gene transcripts; experiment: Microarray profiling of transcript levels in response to TPP; format: cell-based, Bacillus subtilis; conditions: wild-type cells, exponential phase, minimal medium without TPP vs with TPP
Experimental: In order to perform microarray profiling, PY79 was grown in shake-flask cultures that contained 50 ml Spizizen minimal medium with or without added thiamin pyrophosphate. Overnight cultures were diluted to Klett=10 units into fresh medium and grown to exponential growth phase (Klett=100 units). Cells from half of the culture were collected by centrifugation, and the total RNA was immediately extracted as previously described (Lee et al. (2001) J. Bacteriol. 183:7371-7380). The remaining culture was grown to early stationary phase before RNA extraction. Early stationary phase was judged to be 30 min after glucose exhaustion; glucose content in the medium was measured by a glucose analyzer 2 (Beckman, Fullerton, Calif.) using standard procedures. Preparation of labeled cDNA targets, microarray hybridization and staining procedures, and data analysis are described in Lee et al. above.

Structure (SMILES): c1cscn1 [thiazole]
- repressing activity on thiA-lacZ expression [1]: showed repressing activity

Structure (SMILES): Cc1ncc(C[n+]2csc(CCOP(=O)(O)OP(=O)(O)O)c2C)c(N)n1 [TPP, thiamin pyrophosphate]
- transcript ratio wt−vit/wt+vit, gene dxs (yqiE) [2]: n/c
- transcript ratio wt−vit/wt+vit, gene thiA [2]: 62
- transcript ratio wt−vit/wt+vit, gene thiC [2]: n/c
- transcript ratio wt−vit/wt+vit, gene thiD1 (yjbV) [2]: 32
- transcript ratio wt−vit/wt+vit, gene thiD2 [2]: n/c^b
- transcript ratio wt−vit/wt+vit, gene thiF (yjbU) [2]: 90
- transcript ratio wt−vit/wt+vit, gene thiG (yjbT) [2]: 82
- transcript ratio wt−vit/wt+vit, gene thiK [2]: n/c
- transcript ratio wt−vit/wt+vit, gene thiL (ydiA) [2]: n/c
- transcript ratio wt−vit/wt+vit, gene thiO (goxB) [2]: 67
- transcript ratio wt−vit/wt+vit, gene thiS (yjbS) [2]: 84
- transcript ratio wt−vit/wt+vit, gene ykoC [2]: 12
- transcript ratio wt−vit/wt+vit, gene ykoD [2]: 26
- transcript ratio wt−vit/wt+vit, gene ykoE [2]: 17
- transcript ratio wt−vit/wt+vit, gene ykoF [2]: 20
- transcript ratio wt−vit/wt+vit, gene ylmB [2]: 5.0
- transcript ratio wt−vit/wt+vit, gene yloS [2]: 1.6
- transcript ratio wt−vit/wt+vit, gene ytbJ [2]: n/c
- transcript ratio wt−vit/wt+vit, gene yuaA [2]: 7.4

Structure (SMILES): Cc1ncc(CO)c(N)n1 [HMP, 4-amino-5-hydroxymethyl-2-methylpyrimidine]
- repression of thiA-lacZ expression [1]: 6- to 7 fold

Structure (SMILES): Nc1ncnc2c1ncn2[C@@H]1O[C@H](CO)[C@@H](O)[C@H]1O [adenosine]
- repressing activity on thiA-lacZ expression [1]: showed repressing activity

Structure (SMILES): Cc1ncc(C[n+]2csc(CCO)c2C)c(N)n1 [thiamin]
- repression of thiA-lacZ expression [1]: approximately 80 fold
